How the values were obtained:
[1] = target: Nurr1GAL4:RXRαVP16 heterodimer chimeras (Homo sapiens (Human), UniProt P19793); test: GAL4/VP16 chimera specificity luciferase assay in SHSY-5Y; format: cell-based; conditions: GAL4-responsive luciferase reporter
Procedure: (§1) Compound 3 specifically activates Nurr1:RXRα heterodimers over other RXR-containing transcription co-activator complexes. Specificity assays fusing DNA sequences of the gal4 DNA binding domain to the nuclear receptor Ligand-Binding-Domain (LDB) and to vp16 were performed as follows: Human SHSY-5Y cells were cotransfected with 20 ng of MH100-tk -luciferase, 10 ng of CMX-bgal, 20 ng of CMX-GAL4-RXRα-LBD and 20 ng of CMX-VP16-NR-LBD, where NR stands for either Nurr1, VDR, PPARγ. CMX-VP16-VDR-LBD and CMX-VP16-PPARγ-LBD were kindly provided by Dr Makishima ([…]). CMX-VP16-Nurr1-LBD was produced by cloning the Nurr1 LBD in the CMX-VP16 vector using KpnI. More specifically, Nurr1-LBD was isolated by PCR from a vector containing the Nurr1 cDNA using a set of primers flanking the Nurr1 LBD sequence and carrying at both sides the KpnI restriction sites, namely Nurr1 Forward […] (SEQ ID NO: 1) and Nurr1 Reverse […] (SEQ ID NO: 2). To exclude the possibility that compound 3 might transactivate RXRγ:Nurr1 heterodimers, CMX-GAL4-RXRγ-LBD was constructed by cloning the RXRγ LBD that was isolated by PCR from a vector containing the RXRγ cDNA (RIKEN, Tokyo, Japan) using the following Forward and Reverse primers carrying KpnI and NheI restriction sites, respectively, namely RXRγ Forward […] (SEQ ID NO: 3) and RXRγ LBD Reverse […] (SEQ ID NO: 4). 17 hours after transfection the compound was added to the medium at the corresponding concentrations and left for another 12 hours. Then the cells were assayed for luciferase activity normalized to galactosidase activity.
(§2) To test off-target effects of compound 3 on complexes aside from Nurr1:RXRα heterodimers, we fused the ligand binding domains of Nurr1, RXRα and a variety of related nuclear receptors to GAL4 DNA-binding domain to create chimeric proteins, while the ligand-binding domain of RXRα was also fused with VP16. These molecular chimeras were co-transfected in pairs with the RXRα:VP16 along with a GAL4-responsive luciferase reporter in SHSY-5Y, which were stimulated with compound 3. […] The above experiments indicate the high degree of selectivity of compound 3 and point to its neuroprotective potential.

[2] = target: RXRαGAL4 homodimer chimeras (Homo sapiens (Human), UniProt P19793); test: as above; format: cell-based; conditions: GAL4-responsive luciferase reporter
RXRαGAL4 homodimer chimeras, sequence (P19793 whole entry, looked up, change not shown, the tested form may be a part): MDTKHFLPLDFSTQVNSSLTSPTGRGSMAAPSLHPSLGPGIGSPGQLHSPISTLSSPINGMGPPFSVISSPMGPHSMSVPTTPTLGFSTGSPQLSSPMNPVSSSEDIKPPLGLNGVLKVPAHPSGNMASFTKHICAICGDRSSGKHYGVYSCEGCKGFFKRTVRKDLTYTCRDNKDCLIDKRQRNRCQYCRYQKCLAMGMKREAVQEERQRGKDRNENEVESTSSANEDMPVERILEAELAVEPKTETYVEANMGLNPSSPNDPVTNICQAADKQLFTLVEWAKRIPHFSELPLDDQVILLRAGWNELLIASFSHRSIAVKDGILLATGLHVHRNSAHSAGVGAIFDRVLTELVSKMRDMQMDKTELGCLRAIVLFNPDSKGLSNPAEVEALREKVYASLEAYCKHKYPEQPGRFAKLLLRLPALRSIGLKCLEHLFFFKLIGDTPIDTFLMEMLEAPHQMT
RXRαGAL4 homodimer chimeras, sequence (P19793 whole entry, looked up, change not shown, the tested form may be a part): as above
Procedure: as §1, §2

[3] = target: RXRαVP16 heterodimer chimeras with PPARγGAL4 (Homo sapiens (Human), UniProt P19793); test: as above; format: cell-based; conditions: GAL4-responsive luciferase reporter
RXRαVP16 heterodimer chimeras with PPARγGAL4, sequence (P19793 whole entry, looked up, change not shown, the tested form may be a part): as above
RXRαVP16 heterodimer chimeras with PPARγGAL4, sequence (P37231 whole entry partner, looked up, the tested form may be a part): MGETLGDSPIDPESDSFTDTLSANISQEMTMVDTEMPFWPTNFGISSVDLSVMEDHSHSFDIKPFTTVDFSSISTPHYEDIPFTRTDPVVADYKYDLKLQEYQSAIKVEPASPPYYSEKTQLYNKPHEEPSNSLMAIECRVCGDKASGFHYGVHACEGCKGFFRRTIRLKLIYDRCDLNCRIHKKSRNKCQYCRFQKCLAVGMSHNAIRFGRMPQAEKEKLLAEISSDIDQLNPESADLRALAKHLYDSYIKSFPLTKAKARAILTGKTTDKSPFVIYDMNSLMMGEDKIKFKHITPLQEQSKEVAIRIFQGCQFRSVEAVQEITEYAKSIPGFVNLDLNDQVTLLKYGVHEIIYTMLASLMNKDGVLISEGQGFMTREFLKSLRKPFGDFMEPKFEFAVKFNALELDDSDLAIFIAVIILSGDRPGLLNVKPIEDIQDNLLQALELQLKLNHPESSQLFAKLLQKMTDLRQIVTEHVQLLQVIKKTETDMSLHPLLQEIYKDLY
Procedure: as §1, §2

[4] = target: RXRαVP16 heterodimer chimeras with RXRγGAL4 (Homo sapiens (Human), UniProt P19793); test: as above; format: cell-based; conditions: GAL4-responsive luciferase reporter
RXRαVP16 heterodimer chimeras with RXRγGAL4, sequence (P19793 whole entry, looked up, change not shown, the tested form may be a part): as the sequence (P19793 whole entry, looked up, change not shown, the tested form may be a part) above
RXRαVP16 heterodimer chimeras with RXRγGAL4, sequence (P48443 whole entry partner, looked up, the tested form may be a part): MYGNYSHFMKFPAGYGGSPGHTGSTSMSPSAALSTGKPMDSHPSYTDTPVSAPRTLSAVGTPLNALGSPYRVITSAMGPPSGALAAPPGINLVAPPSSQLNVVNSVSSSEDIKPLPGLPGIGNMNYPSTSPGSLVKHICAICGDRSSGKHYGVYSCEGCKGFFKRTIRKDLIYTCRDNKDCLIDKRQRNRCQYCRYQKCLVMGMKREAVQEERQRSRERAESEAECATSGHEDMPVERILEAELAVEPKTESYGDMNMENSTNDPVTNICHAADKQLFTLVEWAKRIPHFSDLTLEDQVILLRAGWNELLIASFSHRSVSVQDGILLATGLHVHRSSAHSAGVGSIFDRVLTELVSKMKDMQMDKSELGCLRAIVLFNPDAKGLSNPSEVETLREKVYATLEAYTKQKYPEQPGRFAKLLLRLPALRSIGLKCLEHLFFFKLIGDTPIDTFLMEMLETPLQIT
Procedure: as §1, §2

[5] = target: RXRαVP16 heterodimer chimeras with VDRGAL4 (Homo sapiens (Human), UniProt P19793); test: as above; format: cell-based; conditions: GAL4-responsive luciferase reporter
RXRαVP16 heterodimer chimeras with VDRGAL4, sequence (P19793 whole entry, looked up, change not shown, the tested form may be a part): as the sequence (P19793 whole entry, looked up, change not shown, the tested form may be a part) above
RXRαVP16 heterodimer chimeras with VDRGAL4, sequence (P11473 whole entry partner, looked up, the tested form may be a part): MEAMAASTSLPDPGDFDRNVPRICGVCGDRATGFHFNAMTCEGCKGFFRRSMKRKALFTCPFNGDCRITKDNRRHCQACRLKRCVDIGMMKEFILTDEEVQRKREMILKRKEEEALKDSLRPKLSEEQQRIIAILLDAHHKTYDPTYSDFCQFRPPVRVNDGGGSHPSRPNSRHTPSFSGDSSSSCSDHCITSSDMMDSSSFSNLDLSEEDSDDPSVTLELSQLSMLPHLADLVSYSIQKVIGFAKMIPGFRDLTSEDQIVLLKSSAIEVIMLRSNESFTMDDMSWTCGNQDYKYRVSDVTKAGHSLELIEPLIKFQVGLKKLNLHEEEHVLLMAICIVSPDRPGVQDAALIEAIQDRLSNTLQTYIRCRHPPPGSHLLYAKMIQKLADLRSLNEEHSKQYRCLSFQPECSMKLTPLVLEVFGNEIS
Procedure: as §1, §2

[6] = test system: Neuro2A cells; test: MPP+ induced toxicity in Neuro2A cells; format: cell-based
Procedure: MPP+, eradicates approximately 75% of the cells in 24 hours. […] Naive Neuro2A cells (FIG. 2A) or SH-SY5Y neuroblastoma cells FIG. 2B,C) were cultured in RPMI 1640, 10% fetal bovine serum at 37° C. Cells were pretreated with compound 3 for 12-24 h. Subsequent change of culture medium with addition of 0, 1, 2 and 4 mM MPP+ induced cell death. MTT assays determined the relative number of surviving cells FIG. 2D).

[7] = test system: striatum 5HT levels; test: Striatal 5-HT and 5-HIAA levels by HPLC-ECD; format: in vivo, mouse; conditions: C57/BL6 mice, IP 20 mg/kg, 4 h post injection
Procedure: We measured striatal 5-HT levels, and we detected 5-HT and 5-HIAA in wild type C57/BL6 mice. 4 hours after dosing animals were killed by cervical dislocation, brains were removed, and the striata were dissected on ice. The samples were immediately frozen and stored at −80° C. until use. The tissues were processed for the analysis by high performance liquid chromatography (HPLC) with an electrochemical detector (ECD) (Emmanouil et al., 2006). The dissected tissues were weighed, homogenized, and deproteinized in 0.2 N perchloric acid solution containing 7.9 mM Na2S2O5 and 1.3 mM Na2EDTA. The homogenate was centrifuged at 37,000×g for 30 minutes, and the supernatant was stored at −80° C. until assayed. A reverse-phase ion-pair chromatography was used in all analyses, and the mobile phase consisted of an acetonitrile-50 mM phosphate buffer at pH 3.0, containing 5-octylsulfate sodium salt (300 mg/L) as the ion-pair reagent and (20 mg/L) Na2EDTA. Reference standards were prepared in 0.2 N perchloric acid solution containing 7.9 mM Na2S2O5 and 1.3 mM Na2EDTA. Samples were quantified by comparison of the areas under the peaks with those of reference standards using HPLC software (Chromatography Station for Windows™, Watrex International Inc., San Francisco, Calif.) (FIG. 3C).

[8] = test system: Rat cortical neurons; test: Apoptosis of cortical neurons transfected with LRRK2-G2019S, DAPI staining; format: cell-based; conditions: rat cortical neurons co-transfected with CMV-GFP and LRRK2-G2019S
Excerpt: We examined the neuroprotective capability of Nurr1:RXRα heterodimer activation in SHSY-5Y cells where death was induced by either the oxidative stress related H2O2 or the mitochondria complex I inhibitor MPP+ (1-methyl-4-phenylpyridinium) (FIG. 72B). […] The protection conferred by compound 3 was Nurr1-dependent, since it was abrogated by knocking-down endogenous Nurr1 mRNA (FIGS. 1E and 72D). The neuroprotective effects of compound 3 extend to damage induced by the PD-associated mutation G2019S in the Leucine-Rich Repeat Kinase 2 (LRRK2) gene, the most common genetic defect associated with clinical PD (Tofaris et al. J. Neurosci. 26:3942-3950, 2006). Rat cortical neurons, co-transfected with CMV-GFP for identification, and CMVLRRK2-G2019S cDNAs show increased apoptosis as assessed by DAPI staining, compared to control neurons co-transfected with a LRRK2 wt cDNA.

Nurr1GAL4:RXRαVP16 heterodimer chimeras, sequence (P19793 whole entry, looked up, change not shown, the tested form may be a part): as the sequence (P19793 whole entry, looked up, change not shown, the tested form may be a part) above
Nurr1GAL4:RXRαVP16 heterodimer chimeras, sequence (P43354 whole entry partner, looked up, the tested form may be a part): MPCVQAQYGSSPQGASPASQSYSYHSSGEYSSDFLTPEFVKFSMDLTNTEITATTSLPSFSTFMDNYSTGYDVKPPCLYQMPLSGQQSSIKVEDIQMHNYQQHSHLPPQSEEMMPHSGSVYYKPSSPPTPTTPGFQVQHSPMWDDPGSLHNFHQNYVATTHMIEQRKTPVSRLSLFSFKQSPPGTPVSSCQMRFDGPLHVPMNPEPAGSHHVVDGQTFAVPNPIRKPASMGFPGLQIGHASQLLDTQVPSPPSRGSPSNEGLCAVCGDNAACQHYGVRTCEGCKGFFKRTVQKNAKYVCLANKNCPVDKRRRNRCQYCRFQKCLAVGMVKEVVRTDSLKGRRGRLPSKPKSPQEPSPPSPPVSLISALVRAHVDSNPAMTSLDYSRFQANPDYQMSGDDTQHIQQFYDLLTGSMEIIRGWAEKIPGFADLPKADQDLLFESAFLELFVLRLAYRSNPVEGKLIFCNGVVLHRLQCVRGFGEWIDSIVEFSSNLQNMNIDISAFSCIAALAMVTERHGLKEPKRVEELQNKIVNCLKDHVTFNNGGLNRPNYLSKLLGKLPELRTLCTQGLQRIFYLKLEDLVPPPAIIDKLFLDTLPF

C=CCc1c(N(C)c2ccc(C(=O)O)cc2)nc(-c2ccccc2)nc1C(F)(F)F [Example 3, 4-((5-allyl-2-phenyl-6-(trifluoromethyl)pyrimidin-4-yl)(methyl)amino)benzoic acid]
activation of Nurr1GAL4:RXRαVP16 heterodimer chimeras [1]: strongly activated | activation of RXRαGAL4 homodimer chimeras [2]: failed to activate | activation of PPARγGAL4:RXRαVP16 chimeras [3]: failed to activate | activation of RXRγGAL4:RXRαVP16 chimeras [4]: failed to activate | activation of VDRGAL4:RXRαVP16 chimeras [5]: failed to activate | protection from MPP+ induced toxicity [6]: protects | striatum 5HT levels and 5HT metabolite 5HIAA levels [7]: increased | apoptosis induced by LRRK2-G2019S [8]: reduced apoptosis to control levels
